# In patent US20040121947A1, “Compounds which inhibit beta-secretase activity and methods of use thereof” (Oklahoma Medical Research Foundation, priority 2000, published 2004):
# *1 amine or outer side, *2 acyl side, *3 side chain or, on linkers, in order; H or OH if unused. Where a SMILES comes first, the peptide text is derived from it. [ ]: non-standard residue; d: D form. The star is where a group is joined. LeuΨ(S-CHOHCH2)Ala = CC(C)C[C@H](N[*:1])[C@@H](O)C[C@@H](C)C(=O)[*:2]; 5FAM = O=C1OC2(c3ccc(O)cc3Oc3cc(O)ccc32)c2ccc(C(=O)*)cc21; Ahx = NCCCCCC(=O)O
# Assays:
# [1] = Transport of conjugated inhibitors to mouse blood, spleen and brain after i.p. injection
# Method: Whole blood cells (with EDTA as anti-coagulant in the syringe or in the capillary tube) were isolated from anesthetized animals from the orbital artery or by heart puncture and diluted 1:10 in PBS. Prior to the harvest of other tissue samples, animals were anesthetized and perfused with 150 ml of neutral-buffered 10% formalin. Spleens were harvested intact. Brains were harvested and cerebral hemispheres separated, one for sectioning by cryostat, the other for single cell isolation for flow cytometry.
# Sections of the brain hemispheres were obtained by soaking in OCT/PBS at 4° C. for overnight, recovered and frozen in Histo Prep Media.
# To collect single cell suspensions, spleens and brain hemispheres were homogenized through a 30 μm screen and directly analyzed by flow cytometric analysis.
# HEK293 cells = assay: Penetration of fluorescently labelled inhibitors into cultured cells (flow cytometry); type: cell-based, human; details: incubation 10 to 30 minutes
# Method: Fluorescently labelled inhibitors or fluorescein (Fs) as a control were incubated with suspended cells for time intervals ranging from 10 to 30 minutes. Cells were fixed with paraformaldehyde and permeabilized in 0.2% Tween-20 in PBS for 6 minutes and incubated with anti-fluorescein-Alexa™ 488 antibody (Molecular Probes, Eugene, Oreg.) in order to enhance detection of intracellular inhibitor present from penetration. Flow cytometry (FACSCalibur™) and confocal fluorescent microscopy (Leica TCS NT™) were performed at the Flow and Image Cytometry Lab, OUHSC.
# memapsin 2 = biological target: T1, memapsin 2 (Homo sapiens, UniProt P56817); assay: Inhibition of memapsin 2 proteolytic activity, fluorogenic substrate FS-2; type: biochemical; details: memapsin 2, carrier peptide-inhibitor conjugates; read-out: Ki apparent
# T1 construct: pET-11 vector-derived residues 1-15 of promemapsin 2-T1 (N, cleaved yes); made in house; host or cells: E. coli
# Method in brief: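 Inhibitors tested at about 10 nM to 10 μM in pH 4.0 0.1 M sodium acetate containing 10% (v/v) DMSO, after 20 min preincubation at 37 °C with 80 nM self-activated memapsin 2. Substrate-independent Ki derived from apparent Ki via Km and substrate level.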
# [2] = Martin et al. 1999; cited from earlier work
# plasma Aβ40 [3] = assay: Inhibition of Aβ production in transgenic mice (plasma Aβ40 ELISA); type: in vivo, tg2576 mice; details: for Effect on plasma Aβ40: i.p. injection, 2 hours following injection
# Method: Six-month-old tg2576 mice (n=21) were injected intraperitoneally (i.p.) 200 μg of conjugate CPI-3 or with control DMSO, in 200 μl of PBS. Plasma were collected from anesthetized animals by orbital bleed or sephaneous vein into heparinized capillary tubes and clarified by centrifugation. Plasma Aβ 1-40 levels were determined by capture ELISA (BioSource International, Camarillo, Calif.). The peptide analogue of CPI-3, with an amide group instead of the hydroxyethylene isostere was synthesized by SynPep (Camarillo, Calif.).
# Since the conjugate inhibitors can cross the blood brain barrier in vivo, enter cells both in vitro and in vivo, and inhibit Aβ production in vitro, inhibition of Aβ production in vivo was determined. Tg2576 mice, expressing the Swedish mutation of the human amyloid precursor protein (including SEQ ID NO: 11) (Hsiao, K., et al., Science 274:99-102 (1996), the teachings of which are incorporated hereby in their entirety) were injected with CPI-3, which is identical in amino acid sequence to CPI-2 and lacks the amino-terminal fluorescein (FAM) derivative. Blood was collected from tg2576 animals at time intervals following injection of 400 μg of CPI-3.
# At ages up to 9 months, plasma Aβ in the tg2576 mice serves as a reliable marker for brain Aβ production as a result of memapsin 2 activity (Kawarabayashi, T., et al., J Neurosci. 21:372-381 (2001)). Nine tg2576 mice were injected intraperitoneally with various doses of inhibitor CPI-3.
# plasma Aβ40 [4] = assay: Inhibition of Aβ production in transgenic mouse model of Alzheimer's disease (plasma Aβ40 ELISA); type: in vivo, APP/F mice
# Method: Compounds MMI-138, MMI-165, and MMI-185 were synthesized as described above. Compounds were dissolved in 1 ml of dimethyl sulfoxide (DMSO) to a final concentration of about 1 mg/ml for MMI-165 and MMI-185, and about 10 mg/ml for MMI-138. […] Inhibitors were diluted into PBS or H2O immediately prior to injection, as described below. Inhibition constants were determined by methods described by Ermolieff, et al. (Biochem. 39:12450-12456 (2000), the teachings of which are incorporated hereby in their entirety).
# The tg2576 strain of mice was obtained from Taconic (Germantown, N.Y.). The APP/F strain of mice were obtained by mating the tg2576 mice with the FVB/N strain. To determine presence of the Swedish APP gene in APP/F mice, the DNA from mice was isolated according to the Qiagen Dneasy™ Tissue Kit. PCR (Qiagen kit and protocol) was used to amplify the fragment of DNA corresponding to the human Swedish APP gene. The following primers were used: […]
# At the age of three months, animals of the Alzheimer's disease mouse model APP/F were injected intraperitoneally (i.p.) with about 163 nanomoles of either compounds MMI-138 (molecular weight 674 g/mole; 110 μg per animal, n=2), MMI-165 (molecular weight 626 g/mole; 102 μg per animal, n=2), or MMI-185 (molecular weight 686; 112 μg per animal, n=2).
# Heparinized capillary tubes collected blood samples from anesthetized animals from either the retro-orbital sinus or from the saphenous vein at specified intervals following injection. The blood samples were transferred to sterile 1.5 mL microcentrifuge tubes, centrifuged at 5,100 RPM for 10 minutes to recover the plasma (supernatant), and stored at −70° C. until analysis for the Aβ40 by Enzyme Linked-Immuno-Sorbent Assay (ELISA).
# A sandwich ELISA (BioSource International, Camarillo, Calif.) was used to determine the levels of Aβ40 in plasma samples. The ELISA utilizes a primary antibody specific for human Aβ for the immobilization of the amino-terminus and a detection antibody specific for the carboxy-terminal amino acids of Aβ40. A conjugated secondary antibody was used to detect the ternary complex, using a stabilized chromogen substrate, quantifiable following addition of 1 M HCl, with the optical densities measured at 450 nm. The procedures were followed according to the BioSource protocol. Optical densities were converted to pg/ml quantities of Aβ40 using a linear regression of the optical densities of standards obtained from the commercial kit, to their known concentrations.
# [5] = four injections at 2 hour intervals
# T1 sequence (P56817 41-454 limits assumed): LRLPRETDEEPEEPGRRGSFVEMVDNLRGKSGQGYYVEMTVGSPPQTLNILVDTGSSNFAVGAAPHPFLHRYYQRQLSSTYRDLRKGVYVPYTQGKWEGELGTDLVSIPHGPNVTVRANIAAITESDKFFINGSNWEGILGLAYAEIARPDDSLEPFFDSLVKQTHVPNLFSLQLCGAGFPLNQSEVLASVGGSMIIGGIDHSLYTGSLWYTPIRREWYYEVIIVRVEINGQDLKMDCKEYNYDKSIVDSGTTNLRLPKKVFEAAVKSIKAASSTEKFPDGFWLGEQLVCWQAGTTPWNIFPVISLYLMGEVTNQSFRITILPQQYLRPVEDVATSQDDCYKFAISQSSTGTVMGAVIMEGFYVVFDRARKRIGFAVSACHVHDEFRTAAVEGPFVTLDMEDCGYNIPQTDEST
structure (smiles),measurement,setting,value
CC(C)C[C@H](NC(=O)[C@H](CCC(=O)O)NC(=O)CCCCCNC(=O)c1ccc2c(c1)C(=O)OC21c2ccc(O)cc2Oc2cc(O)ccc21)C(=O)N[C@@H](CC(=O)O)C(=O)N[C@@H](CC(C)C)[C@@H](O)C[C@@H](C)C(=O)N[C@H](C(=O)N[C@@H](CCC(=O)O)C(=O)N[C@@H](Cc1ccccc1)C(=O)NCC(=O)NCC(=O)N[C@H](CCCNC(=N)N)C(=O)N[C@H](CCCNC(=N)N)C(=O)N[C@H](CCCNC(=N)N)C(=O)N[C@H](CCCNC(=N)N)C(=O)N[C@H](CCCNC(=N)N)C(=O)N[C@H](CCCNC(=N)N)C(=O)N[C@H](CCCNC(=N)N)C(=O)N[C@H](CCCNC(=N)N)C(=O)N[C@H](CCCNC(=N)N)C(=O)O)C(C)C [CPI-2] ({5FAM-Ahx}-ELD[LeuΨ(S-CHOHCH2)Ala]VEFGG[dR][dR][dR][dR][dR][dR][dR][dR][dR]-OH),Splenocytes with fluorescence peak shift,"[1]; mouse, in vivo, ip",~100%
same,Penetration of cultured cells (intracellular fluorescence),HEK293 cells,readily penetrated cultured cells within minutes
same,Ki,memapsin 2,0.058 µM
CC(C)(C)NC(=O)[C@@H]1CN(Cc2cccnc2)CCN1C[C@@H](O)C[C@@H](Cc1ccccc1)C(=O)N[C@H]1c2ccccc2C[C@H]1O [indinavir],Crossing of the blood-brain barrier,[2],can cross the blood-brain barrier
CC(C)C[C@H](NC(=O)[C@H](CC(N)=O)NC(=O)[C@@H](NC(=O)[C@H](CCC(=O)O)NC(=O)CCCCCNC(=O)c1ccc2c(c1)C(=O)OC21c2ccc(O)cc2Oc2cc(O)ccc21)C(C)C)[C@@H](O)C[C@@H](C)C(=O)N[C@@H](C)C(=O)N[C@@H](CCC(=O)O)C(=O)N[C@@H](Cc1ccccc1)C(=O)NCC(=O)N[C@@H](Cc1ccc(O)cc1)C(=O)NCC(=O)N[C@@H](CCCNC(=N)N)C(=O)N[C@@H](CCCCN)C(=O)N[C@@H](CCCCN)C(=O)N[C@@H](CCCNC(=N)N)C(=O)N[C@@H](CCCNC(=N)N)C(=O)N[C@@H](CCC(N)=O)C(=O)N[C@@H](CCCNC(=N)N)C(=O)N[C@@H](CCCNC(=N)N)C(=O)N[C@@H](CCCNC(=N)N)C(=O)O [CPI-1] ({5FAM-Ahx}-EVN[LeuΨ(S-CHOHCH2)Ala]AEFGYGRKKRRQRRR-OH),Uptake into brain tissue,"[1]; 8 hours after i.p. injection, flow cytometry or confocal microscopy",penetration of the fluorescent conjugate into all brain cells
same,Splenocytes with fluorescence peak shift,[1]; splenectomy 2 hours after i.p. injection,~100%
same,Blood cells with strong fluorescence signal,"[1]; whole blood 20 minutes after i.p. injection, 0.3 nmol",approximately 100%
same,Penetration of cultured cells (intracellular fluorescence),HEK293 cells,readily penetrated cultured cells within minutes
same,Ki,memapsin 2,0.039 µM
CC(C)C[C@H](NC(=O)[C@@H](N)CCC(=O)O)C(=O)N[C@@H](CC(=O)O)C(=O)N[C@@H](CC(C)C)[C@@H](O)C[C@@H](C)C(=O)N[C@H](C(=O)N[C@@H](CCC(=O)O)C(=O)N[C@@H](Cc1ccccc1)C(=O)NCC(=O)NCC(=O)N[C@H](CCCNC(=N)N)C(=O)N[C@H](CCCNC(=N)N)C(=O)N[C@H](CCCNC(=N)N)C(=O)N[C@H](CCCNC(=N)N)C(=O)N[C@H](CCCNC(=N)N)C(=O)N[C@H](CCCNC(=N)N)C(=O)N[C@H](CCCNC(=N)N)C(=O)N[C@H](CCCNC(=N)N)C(=O)N[C@H](CCCNC(=N)N)C(=O)O)C(C)C [CPI-3] (H-ELD[LeuΨ(S-CHOHCH2)Ala]VEFGG[dR][dR][dR][dR][dR][dR][dR][dR][dR]-OH),Plasma Aβ40 level relative to initial value,plasma Aβ40 [3]; 2 hours following i.p. injection,about one third
same,"Aβ level, average low, % of the average initial value",plasma Aβ40 [3]; [5],29%
same,Inhibition of plasma Aβ,plasma Aβ40 [3]; [5],about 80%
same,Effect on plasma Aβ40,plasma Aβ40 [3],significant dose-dependent reduction
same,Half-life of inhibition of plasma Aβ40,plasma Aβ40 [3]; single i.p. injection,3 h
same,Time of return of plasma Aβ40 level to the initial value,plasma Aβ40 [3]; single i.p. injection,≤ 8 h
"CC(C)C[C@H](NC(=O)[C@@H](N)CCC(=O)O)C(=O)N[C@@H](CC(=O)O)C(=O)N[C@@H](CC(C)C)[C@@H](O)C[C@@H](C)C(=O)N[C@H](C(=O)N[C@@H](CCC(=O)O)C(=O)N[C@@H](Cc1ccccc1)C(=O)O)C(C)C [OM00-3, ELDL*AVEF] (H-ELD[LeuΨ(S-CHOHCH2)Ala]VEF-OH)",Effect on plasma Aβ40,plasma Aβ40 [3],did not reduce plasma Aβ40 levels
same,Decrease in plasma Aβ40,plasma Aβ40 [4]; 2 hours following injection of 163 nmoles,16%
same,Inhibition of Aβ40 production in vivo,plasma Aβ40 [4]; plasma Aβ40,failed to inhibit Aβ40 production
